# In patent US7029918B2, “Water-soluble derivatives of lipophilic drugs” (Roche Diagnostics Operations, Inc., priority 2002, dated 2006):
# Where “and” joins values, the source holds several entries; their conditions need not be identical. Equal values may be shown once.
# Tests used:
# [1] = cited from earlier work
# [2] = Heat stress stability of urine standard solutions, ABUSCREEN ONLINE Benzodiazepines assay; settings: for stability in urine by ONLINE assay: up to 4 weeks, 4° C. or 45° C., pH 6.4 or 7.4, 100 to 200 ng/mL
# Description: (§1) Urine standard solutions were prepared using pooled, filtered, normal human urine containing 0.09 percent sodium azide. […] Each of the drug stock solutions was added analytically to the assigned aliquot of urine pool. Final drug concentrations in the solutions were determined by GC-MS analyses performed at ELSOHLY LABORATORIES (Oxford, MS).
# (§2) The stability of the above standard solutions were evaluated using three different analytical technologies: (1) GCIMS (Gas Chromatography/Mass Spectrometry) analysis, (2) ABUSCREEN ONLINE Benzodiazepines Immunoassay, and (3) HPLC (High Pressure Liquid Chromatography) analysis.
# The heat stress stability study of the water-soluble derivative 2 was evaluated using ABUSCREEN ONLINE Benzodiazepines assay. […] (in neutral and acidic negative urine pools, 2 concentrations for each urinary pH).
# [3] = system: antibody of ABUSCREEN ONLINE Benzodiazepines assay; settings: ONLINE immunoassay
# Description: ABUSCREEN ONLINE reagents and Calibration Pack were obtained from ROCHE DIAGNOSTICS CORPORATION, INC. […] ABUSCREEN ONLINE Benzodiazepines assay was run either on a ROCHE MIRA analyzer in a semi-quantitative mode, or using a ROCHE COBAS INTEGRA 700 analyzer in a semi-quantitative mode, according to the I manufacturer's instructions.
# [4] = in water; 'it is believed'
# [5] = Heat stress stability of urine standard solutions, GC/MS quantification; assay type: physicochemical; settings: for change of concentration in urine: 45° C. and 55° C.
# Description: as §1, §2
# The standard solutions were stored at various temperatures, including 4° C., 45° C. and 55° C., and tested at different time intervals.
# [6] = Description: Water-soluble derivative 2 was spiked in certified drug-free human urine 100 ng/mL) and the resulting solution was divided into two portions: one was stored at 4° C. and the other stressed at 45° C. After three months, both solutions were analyzed for the concentration of water-soluble derivative 2 by the following procedure. A volume (between 2.5 to 10 mL) of the urine solutions was passed through an affinity column packed with anti-benzodiazepines antiserum-coated latex beads (0.8 μm). After it was washed with a 50 mM, pH 6.1 MES (4-morpholineethane […]) buffer, the column was eluted with methanol. The methanol eluant was then evaporated and the residue reconstituted in 404 μL of MES buffer. […] The column was eluted with a gradient generated between a 50 mM, pH 6.8 ammonium acetate buffer and acetonitrile (Table C).
# [7] = system: antibody (competition with benzodiazepine-BSA conjugate 7); assay: Immunochromatographic assay of benzodiazepines (nitrocellulose test strip, competitive); assay type: binding
# Description: In the absence of lipophilic drug in a sample being analyzed, the drug conjugate can bind to the antibody, and this binding can be measured. When a the lipophilic drug is present in the sample, the drug competes with the drug conjugate for binding to the antibody. Antibody that is bound to the liphophilic drug no longer contributes to the binding measurement. Lipophilic drug content is determined relative to the values obtained for known concentrations of the standard compound (Adler, F. L. J. Immunol. 1971, 106(6):1684–1685. See also Bates, M. Amer. Acad. Forensic Sci. 1991, 37(6):1000).
# The benzodiazepine-BSA conjugate was prepared in a similar manner as described in Example 6, but treating with BSA rather than BTG. The product was prepared and stored in 100 mM potassium phosphate as 10 mg/mL solution with 0.05% sodium azide as preservative Example 9-Immunochromatographic assay of benzodiazepines using water-soluble derivative 2 as calibrator The immunochromatographic assay was conducted using a nitrocellulose-based test strip as described in detail in U.S. Pat. No. 5,770,458. Mylar backed large pore size nitrocellulose (8–12 micron) was cut into pieces of 15 cm in length and 5 cm in width. A solution of the benzodiazepine-BSA conjugate 7 (about 5 mg/mL) and anti-BSA monoclonal antibody (about 2 mg/mL), both in 50 mM potassium phosphate buffer pH 7.5, were loaded onto IVEK CORP. (North Springfield, Vt.) […] 2000™ system. The solutions were dispensed at the rate 1 μl/cm onto nitrocellulose at a distance of 2 cm and 1 cm, respectively, from the 15 cm side. The nitrocellulose segments were allowed to dry for about 30 min. at 37° C., and then were blocked with polyvinyl alcohol (PVA, m.w. 13,000–23,000) solution in 20 mM TRIS, pH 8, for 30 min. at room temperature. The segments were then rinsed in water and dried.
# The same nitrocellulose as described above in this example was used as a separate membrane for microparticles (top membrane). The construction of the two-membrane strip configuration was carried out as described in detail in U.S. Pat. No. 5,770,458. In brief, the top membrane was blocked and washed using the same protocol as the main membrane. The top membrane containing the appropriate amount of microparticles was laminated to the main membrane with ADHESIVE […] INC. (Glen Rock, Pa.) adhesive mylar and the segment was then cut into 5 mm wide strips. The sample pad and sink pad were placed respectively at the beginning and terminal ends of the strips. Cellulose from BIORAD LABORATORIES (Hercules, Calif.) (gel blotter) was used for both the sample receiving pads and the sink pads. The calibration curve was obtained by adding solutions containing predetermined amounts of drug in urine to the sample receiving pad or by dipping the sample receiving pad of the membrane strip in the solutions. Various predetermined concentrations of water-soluble derivative 2 were used to prepare the standards in urine. The signal strength is determined as follows: 2.5 to 3.0=dark blue, 1.5 to 2.0-medium blue, 1.0=light blue, 0.5=barely perceivable color and 0=colorless. When the strip read colorless, a complete inhibition is achieved and the sample is indicated to contain 200 ng/mL of the drug used to prepare the “standards”.
# [8] = urine pH 7.4, higher-concentration standard
# [9] = urine pH 7.4, lower-concentration standard
# [10] = urine pH 6.4, higher-concentration standard
# [11] = urine pH 6.4, lower-concentration standard
# [12] = urine, scale 2.5 to 3.0 dark blue, 1.5 to 2.0 medium blue, 1.0 light blue, 0.5 barely perceivable, 0 colorless
compound,measurement,setting,value
CCN(CC)CCN1C(=O)CN=C(c2ccccc2F)c2cc(Cl)ccc21 [Fluazepam],solubility in water,[1],only slight solubility in water
"O=C1CN=C(c2ccccc2)c2cc(Cl)ccc2N1 [Nordiazepam, reference compound]","ONLINE assay concentration, 4° C., Day 0",[2]; [8],271 ng/mL
same,"ONLINE assay concentration, 4° C., Week 2",[2]; [8],272 ng/mL
same,"ONLINE assay concentration, 4° C., Week 4",[2]; [8],252 ng/mL
same,"ONLINE assay concentration, 45° C., Day 0",[2]; [8],271 ng/mL
same,"ONLINE assay concentration, 4° C., Day 0",[2]; [9],139 ng/mL
same,"ONLINE assay concentration, 4° C., Week 2",[2]; [9],140 ng/mL
same,"ONLINE assay concentration, 4° C., Week 4",[2]; [9],134 ng/mL
same,"ONLINE assay concentration, 45° C., Day 0",[2]; [9],139 ng/mL
"O=C1CN=C(c2ccccc2F)c2cc(Cl)ccc2N1CCNS(=O)(=O)O [Water-soluble derivative 2, 1-(2-Sulfamidoethyl)-2′-fluoro-7-chloro-1,4-benzodiazepine]",cross-reactivity to both Oxazepam and Nordiazepam,[3],approximately 70%
same,aqueous solubility,[4],more than 2 mg/mL
same,"GC/MS concentration, Day 0","[5]; human urine standard solution, starting concentration",Day 0 = 171 ng/mL
same,"GC/MS value at 5 months, 4° C.","[5]; human urine, 5 months, 4° C., Day 0 = 171 ng/mL",147 ng/mL
same,"GC/MS value at 5 months, 45° C.","[5]; human urine, 5 months, 45° C., Day 0 = 171 ng/mL",150 ng/mL
same,"GC/MS value at 5 months, 55° C.","[5]; human urine, 5 months, 55° C., Day 0 = 171 ng/mL",145 ng/mL
same,GC/MS concentration after storage at 4° C.,"[5]; human urine, two weeks, 4° C.",191 ng/mL
same,GC/MS concentration after storage at 45° C.,"[5]; human urine, two weeks, 45° C.",178 ng/mL
same,GC/MS concentration after storage at 55° C.,"[5]; human urine, two weeks, 55° C.",185 ng/mL
same,change of concentration in urine,"[5]; two weeks, 4° C.",stable at all temperatures
same,change of concentration in urine,"[5]; two weeks, 4° C., listed as water-soluble benzodiazepine reference standard 2",does not change significantly
same,relative stability of the stressed sample (single extraction and HPLC runs),"[6]; human urine, three months, 45° C. vs 4° C., duplicate runs",96% and 106%
same,relative stability of the stressed sample (average),"[6]; human urine, three months, area count at 45° C. divided by that at 4° C., average of duplicates",101%
same,stability at 45° C. relative to 4° C.,"[6]; urine, storage as long as 3 months",no decrease in stability
same,stability in urine by ONLINE assay,[2],stable for the evaluated time and temperatures
same,stability in urine by ONLINE assay,[2]; listed as water-soluble benzodiazepine reference standard 2,does not change significantly
same,"ONLINE assay concentration, 4° C., Day 0",[2]; [10],191 ng/mL
same,"ONLINE assay concentration, 4° C., Week 2",[2]; [10],191 ng/mL
same,"ONLINE assay concentration, 4° C., Week 4",[2]; [10],193 ng/mL
same,"ONLINE assay concentration, 45° C., Day 0",[2]; [10],191 ng/mL
same,"ONLINE assay concentration, 45° C., Week 2",[2]; [10],200 ng/mL
same,"ONLINE assay concentration, 45° C., Week 4",[2]; [10],209 ng/mL
same,"ONLINE assay concentration, 4° C., Day 0",[2]; [11],99 ng/mL
same,"ONLINE assay concentration, 4° C., Week 2",[2]; [11],97 ng/mL
same,"ONLINE assay concentration, 4° C., Week 4",[2]; [11],106 ng/mL
same,"ONLINE assay concentration, 45° C., Day 0",[2]; [11],99 ng/mL
same,"ONLINE assay concentration, 45° C., Week 2",[2]; [11],101 ng/mL
same,"ONLINE assay concentration, 45° C., Week 4",[2]; [11],109 ng/mL
same,"ONLINE assay concentration, 4° C., Day 0",[2]; [8],188 ng/mL
same,"ONLINE assay concentration, 4° C., Week 2",[2]; [8],183 ng/mL
same,"ONLINE assay concentration, 4° C., Week 4",[2]; [8],189 ng/mL
same,"ONLINE assay concentration, 45° C., Day 0",[2]; [8],188 ng/mL
same,"ONLINE assay concentration, 45° C., Week 2",[2]; [8],179 ng/mL
same,"ONLINE assay concentration, 45° C., Week 4",[2]; [8],192 ng/mL
same,"ONLINE assay concentration, 4° C., Day 0",[2]; [9],102 ng/mL
same,"ONLINE assay concentration, 4° C., Week 2",[2]; [9],92 ng/mL
same,"ONLINE assay concentration, 4° C., Week 4",[2]; [9],99 ng/mL
same,"ONLINE assay concentration, 45° C., Day 0",[2]; [9],102 ng/mL
same,"ONLINE assay concentration, 45° C., Week 2",[2]; [9],95 ng/mL
same,"ONLINE assay concentration, 45° C., Week 4",[2]; [9],98 ng/mL
same,cross-reactivity to both Oxazepam and Nordiazepam,[7]; immunochromatographic assay,approximately 70%
same,signal strength at 50 ng/mL standard,[7]; [12],2.50 and 2.75
same,signal strength at 100 ng/mL standard,[7]; [12],2.00
same,signal strength at 200 ng/mL standard,[7]; [12],0
same,signal strength at 400 ng/mL standard,[7]; [12],0
